Earlier results in article PMC4269829 (Cancer cell, 2014).

Assays:
[1] = test system: ALK variant with L1196M mutation; details: crizotinib-resistant L1196M mutation; ref Friboulet et al., 2014
[2] = test system: ALK variant with I1171T mutation; details: crizotinib-resistant I1171T mutation; ref Friboulet et al., 2014
ALK with F1174 mutation = details: ref Friboulet et al., 2014

Cc1cc(Nc2ncc(Cl)c(Nc3ccccc3S(=O)(=O)C(C)C)n2)c(OC(C)C)cc1C1CCNCC1 [ceritinib]
inhibition of ALK variant (in words) [1]: inhibit
inhibition of ALK variant (in words) [2]: inhibit
overcoming resistance of ALK mutation (in words) (ALK with F1174 mutation): not to overcome resistance
